Measured values taken from PubChem BioAssay (NCI).
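1) Cells in 96-well plates. 2) Compound, 48 h, 5 concentrations. 3) Linear interpolation between surrounding doses. 4) Unreached endpoint = highest concentration. GI50 = concentration required for 50% inhibition of growth. Definition used: TGI = concentration required for complete inhibition of growth.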

Tests used:
Assay in all cases: growth of human tumour cells (NCI), 48 h
[1] = system: 786-0 renal
[2] = system: A498 renal
[3] = system: A549 NSCLC
[4] = system: ACHN renal
[5] = system: BT-549 breast
[6] = system: CAKI-1 renal
[7] = system: CCRF-CEM leukemia
[8] = system: COLO 205 colon
[9] = system: DU-145 prostate
[10] = system: EKVX NSCLC
[11] = system: HCC-2998 colon
[12] = system: HCT-116 colon
[13] = system: HCT-15 colon
[14] = system: HL-60(TB) leukemia
[15] = system: HOP-62 NSCLC
[16] = system: HOP-92 NSCLC
[17] = system: HS 578T breast
[18] = system: HT29 colon
[19] = system: IGROV1 ovarian
[20] = system: K-562 leukemia
[21] = system: KM12 colon
[22] = system: LOX IMVI melanoma
[23] = system: M14 melanoma
[24] = system: MALME-3M melanoma
[25] = system: MCF7 breast
[26] = system: MDA-MB-231 breast
[27] = system: MDA-MB-435
[28] = system: MDA-MB-468 breast
[29] = system: MOLT-4 leukemia
[30] = system: NCI-H226 lung
[31] = system: NCI-H23 lung
[32] = system: NCI-H460 lung
[33] = system: NCI-H522 lung
[34] = system: NCI/ADR-RES ovarian
[35] = system: OVCAR-3 ovarian
[36] = system: OVCAR-4 ovarian
[37] = system: OVCAR-5 ovarian
[38] = system: OVCAR-8 ovarian
[39] = system: PC-3 prostate
[40] = system: RPMI-8226 leukemia
[41] = system: RXF 393 renal
[42] = system: SF-268 CNS
[43] = system: SF-295 CNS
[44] = system: SF-539 CNS
[45] = system: SK-MEL-2 melanoma
[46] = system: SK-MEL-28 melanoma
[47] = system: SK-MEL-5 melanoma
[48] = system: SK-OV-3 ovarian
[49] = system: SN12C renal
[50] = system: SNB-19 CNS
[51] = system: SNB-75 CNS
[52] = system: SR leukemia
[53] = system: SW-620 colon
[54] = system: T-47D breast
[55] = system: TK-10 renal
[56] = system: U251 CNS
[57] = system: UACC-257 melanoma
[58] = system: UACC-62 melanoma
[59] = system: UO-31 renal

O=C(CSc1nnc(-c2ccc(-c3nc4ccccc4[nH]3)cc2)o1)Nc1ccc(Br)cc1
GI50 [1]: 2.17 µM | TGI [1]: 4.29 µM | GI50 [2]: 19 µM | TGI [2]: 35.3 µM | GI50 [3]: 2.4 µM | TGI [3]: 6.24 µM | GI50 [4]: 3.55 µM | TGI [4]: 12.8 µM | GI50 [5]: 3.03 µM | TGI [5]: 7.93 µM | GI50 [6]: 2.03 µM | TGI [6]: 4.83 µM | GI50 [7]: 3.41 µM | TGI [7]: 15.8 µM | GI50 [8]: 10.6 µM | TGI [8]: 30.5 µM | GI50 [9]: 3.2 µM | TGI [9]: 10.8 µM | GI50 [10]: 4.2 µM | TGI [10]: 16.3 µM | GI50 [11]: 12.9 µM | TGI [11]: 31.2 µM | GI50 [12]: 3.43 µM | TGI [12]: 13.7 µM | GI50 [13]: 3.66 µM | TGI [13]: 15.1 µM | GI50 [14]: 6.37 µM | TGI [14]: 33.1 µM | GI50 [15]: 2.88 µM | TGI [15]: 8.21 µM | GI50 [16]: 3.24 µM | TGI [16]: 11.5 µM | GI50 [17]: 3.39 µM | TGI [17]: 16.3 µM | GI50 [18]: 2.87 µM | TGI [18]: 12.8 µM | GI50 [19]: 10.3 µM | TGI [19]: 22.6 µM | GI50 [20]: 3.01 µM | TGI [20]: > 100 µM | GI50 [21]: 3.98 µM | TGI [21]: 18.6 µM | GI50 [22]: 1.73 µM | TGI [22]: 3.48 µM | GI50 [23]: 3.82 µM | TGI [23]: 17.8 µM | GI50 [24]: 2.37 µM | TGI [24]: 6.33 µM | GI50 [25]: 2.88 µM | TGI [25]: 12.5 µM | GI50 [26]: 4.38 µM | TGI [26]: 15.1 µM | GI50 [27]: 2.11 µM | TGI [27]: 7.73 µM | GI50 [28]: 6.47 µM | TGI [28]: 20.7 µM | GI50 [29]: 3.26 µM | TGI [29]: 18 µM | GI50 [30]: 2.63 µM | TGI [30]: 9.59 µM | GI50 [31]: 3.22 µM | TGI [31]: 12.4 µM | GI50 [32]: 1.95 µM | TGI [32]: 4.54 µM | GI50 [33]: 2.74 µM | TGI [33]: 14.6 µM | GI50 [34]: 5.14 µM | TGI [34]: 19.1 µM | GI50 [35]: 2.74 µM | TGI [35]: 8.95 µM | GI50 [36]: 3.23 µM | TGI [36]: 12.3 µM | GI50 [37]: 6.53 µM | TGI [37]: 20.4 µM | GI50 [38]: 4.11 µM | TGI [38]: 15.6 µM | GI50 [39]: 2.57 µM | TGI [39]: 8.99 µM | GI50 [40]: 3.24 µM | TGI [40]: 36.1 µM | GI50 [41]: 2.26 µM | TGI [41]: 5.82 µM | GI50 [42]: 2.44 µM | TGI [42]: 6.61 µM | GI50 [43]: 2.31 µM | TGI [43]: 5.97 µM | GI50 [44]: 2 µM | TGI [44]: 4.7 µM | GI50 [45]: 12.2 µM | TGI [45]: 26.4 µM | GI50 [46]: 2.62 µM | TGI [46]: 7.91 µM | GI50 [47]: 4.8 µM | TGI [47]: 17.3 µM | GI50 [48]: 12.1 µM | TGI [48]: 34.9 µM | GI50 [49]: 3.4 µM | TGI [49]: 12.7 µM | GI50 [50]: 5.36 µM | TGI [50]: 18 µM | GI50 [51]: 2 µM | TGI [51]: 7.51 µM | GI50 [52]: 4.57 µM | TGI [52]: 40.1 µM | GI50 [53]: 3.1 µM | TGI [53]: 11.6 µM | GI50 [54]: 3.81 µM | TGI [54]: 20.2 µM | GI50 [55]: 14.8 µM | TGI [55]: 29.6 µM | GI50 [56]: 6.78 µM | TGI [56]: 20.3 µM | GI50 [57]: 4.76 µM | TGI [57]: 20.5 µM | GI50 [58]: 4.13 µM | TGI [58]: 15.5 µM | GI50 [59]: 5.91 µM | TGI [59]: 18.9 µM
